How the values were obtained:
GM-CSF receptor = target: T1, GM-CSF receptor (Homo sapiens, UniProt P15509+P32927); assay: binding affinity for GM-CSF receptor (as described by Park et al.)
T1 construct: endogenous in cells
T1 sequence (P15509 23-400): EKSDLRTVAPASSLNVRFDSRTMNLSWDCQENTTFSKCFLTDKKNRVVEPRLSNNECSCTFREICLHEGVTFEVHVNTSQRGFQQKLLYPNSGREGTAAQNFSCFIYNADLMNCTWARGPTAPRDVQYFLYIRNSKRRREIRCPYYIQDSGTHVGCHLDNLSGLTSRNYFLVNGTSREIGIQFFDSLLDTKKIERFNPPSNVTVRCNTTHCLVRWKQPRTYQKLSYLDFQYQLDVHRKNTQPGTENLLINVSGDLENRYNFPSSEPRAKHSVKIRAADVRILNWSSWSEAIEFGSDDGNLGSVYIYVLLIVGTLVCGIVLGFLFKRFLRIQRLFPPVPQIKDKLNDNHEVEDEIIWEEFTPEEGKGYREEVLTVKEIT
T1 sequence (P32927 17-897): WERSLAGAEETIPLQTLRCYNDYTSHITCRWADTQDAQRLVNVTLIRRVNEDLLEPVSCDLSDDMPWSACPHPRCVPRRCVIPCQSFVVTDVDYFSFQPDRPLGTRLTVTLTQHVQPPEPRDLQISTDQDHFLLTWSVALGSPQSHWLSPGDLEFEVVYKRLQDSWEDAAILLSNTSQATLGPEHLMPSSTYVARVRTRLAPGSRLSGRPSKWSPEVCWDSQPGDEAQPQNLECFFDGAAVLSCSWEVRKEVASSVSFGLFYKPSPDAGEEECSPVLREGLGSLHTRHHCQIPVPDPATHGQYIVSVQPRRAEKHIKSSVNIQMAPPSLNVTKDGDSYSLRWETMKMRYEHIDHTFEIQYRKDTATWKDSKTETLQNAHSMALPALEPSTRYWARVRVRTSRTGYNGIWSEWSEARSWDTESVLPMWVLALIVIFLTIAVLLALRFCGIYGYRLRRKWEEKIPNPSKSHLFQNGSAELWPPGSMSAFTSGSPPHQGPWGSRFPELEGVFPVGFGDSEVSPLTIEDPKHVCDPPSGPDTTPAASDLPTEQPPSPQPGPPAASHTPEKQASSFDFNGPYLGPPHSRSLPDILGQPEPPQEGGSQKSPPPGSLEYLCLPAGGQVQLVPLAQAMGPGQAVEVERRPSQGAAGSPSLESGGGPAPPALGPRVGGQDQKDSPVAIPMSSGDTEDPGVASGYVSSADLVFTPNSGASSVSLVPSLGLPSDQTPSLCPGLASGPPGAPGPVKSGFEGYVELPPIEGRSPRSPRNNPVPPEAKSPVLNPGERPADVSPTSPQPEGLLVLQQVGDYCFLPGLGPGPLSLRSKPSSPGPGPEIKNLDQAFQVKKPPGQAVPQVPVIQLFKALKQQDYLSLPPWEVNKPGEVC
Procedure: (§1) The binding affinity of the recombinant fusion protein for receptors for both GM-CSF and IL-3 were determined substantially as described by Park et al., J. Biol. Chem. 264:5420; 1989, and Park et al., Blood 74:56; 1989.

TF-1 cells = assay: cell proliferation assay using TF-1 cells (tritiated thymidine incorporation); format: cell-based, human; settings: 72 hours at 37° C., tritiated thymidine for the final four hours
Procedure: The potency of the purified recombinant fusion protein was evaluated in a cell proliferation assay using TF-1 cells. TF-1 cells are a continuous cell line derived from human erythroid leukemia cells, and are dependent on IL-3 or GM-CSF for growth. TF-1 cells were maintained in medium containing GM-CSF. Prior to being used in an assay, the cells were washed free of GM-CSF, and resuspended to a concentration of 5×10^4 cells/ml in assay medium (Iscove's Modification of Dulbecco's Medium). The suspended cells were added to the wells of a 96-well microtiter plate containing dilutions of the recombinant fusion protein preparation, positive controls, or negative controls. The cells were incubated at 37° C. for 72 hours; proliferation was measured by adding tritiated thymidine for the final four hours of the incubation. The cells were harvested onto glass fiber filters, and the amount of radioactivity incorporated was determined by scintillation counting.

IL-3 receptor = target: T2, IL-3 receptor (Homo sapiens, UniProt P26951+P32927); assay: binding affinity for IL-3 receptor (as described by Park et al.)
T2 construct: endogenous in cells
T2 sequence (P26951 19-378): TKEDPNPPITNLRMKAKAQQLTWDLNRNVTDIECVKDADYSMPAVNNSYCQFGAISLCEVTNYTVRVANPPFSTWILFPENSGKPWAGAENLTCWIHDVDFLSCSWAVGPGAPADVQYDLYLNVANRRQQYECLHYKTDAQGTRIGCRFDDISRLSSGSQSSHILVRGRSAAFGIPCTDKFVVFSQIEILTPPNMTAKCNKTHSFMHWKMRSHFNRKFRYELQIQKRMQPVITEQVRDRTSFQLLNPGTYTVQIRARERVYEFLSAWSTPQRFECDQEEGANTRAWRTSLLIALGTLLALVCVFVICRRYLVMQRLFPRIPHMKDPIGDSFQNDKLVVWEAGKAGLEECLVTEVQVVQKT
T2 sequence (P32927 17-897): T1 sequence (P32927 17-897)
Procedure: as §1

Substance: huGM-CSF[Leu^23 Asp^27 Glu^39 ]/Gly4 SerGly5 Ser/hulL-3[Pro^8 Asp^15 Asp^70 ] [recombinant fusion protein]
- binding affinity for GM-CSF receptor (GM-CSF receptor): 1e+10 M⁻¹
- potency (a unit is the amount of recombinant fusion protein that induces half-maximal proliferation in the TF-1 bioassay) (TF-1 cells): 2.1×10^8 U/mg
- binding affinity for IL-3 receptor (IL-3 receptor): 2.2e+10 M⁻¹

— patent publication US5463029A, “Purification of fusion proteins comprising GM-CSF and IL-3” (Immunex Corporation, priority 1992, dated 1995)
